The record followed here is PubChem BioAssay AID1996.

Values after ≈ are worked out from the molar mass of the structure shown.

As usually defined, the solubility (kinetic) is solubility judged after dilution from a stock solution rather than from solid.

The conditions of this data set: buffer; pH 7.4; 200.0 µM.
For `CC(=O)Nc1cccc(NS(=O)(=O)c2c(C)noc2C)c1`, the solubility (kinetic) is > 46.4 µg/mL. For the compound `CSc1ccccc1C(=O)OCC(=O)N1CCCC1=O`, the kinetic solubility was > 44 µg/mL. For `O=C(CN1C(=O)c2ccccc2C1=O)c1ccc(F)cc1`, the kinetic solubility is 39.5 µg/mL (≈ 139 µM). Consider `CC(=O)c1ccc(S(=O)(=O)Nc2ccc(Cl)c(S(=O)(=O)N3CCCC3)c2)cc1`, for which the solubility (kinetic) is > 66.4 µg/mL.

In the case of `CCCNC(=O)CCn1c(=S)oc2ccccc21`, the kinetic solubility was > 39.7 µg/mL. On to `COc1ccc(C(=O)Nc2ccc(NC(=O)C3CC3)nc2)cc1`, for which the solubility (kinetic) came to 1.7 µg/mL (≈ 5.46 µM). `CS(=O)(=O)Cc1ccc(C(=O)NC2CCCc3ccccc32)cc1` (centres undefined): the solubility (kinetic) is 9.6 µg/mL (≈ 28 µM). As to `COc1cc(SC)ccc1C(=O)NCCc1c[nH]c2ccccc12`, the kinetic solubility amounted to 6.1 µg/mL (≈ 17.9 µM). For the compound `Nc1ccc2oc(=O)c(-c3ccccc3)cc2c1`, the solubility (kinetic) is 19.3 µg/mL (≈ 81.3 µM).

In turn, `O=C(CCN1C(=O)c2cccc([N+](=O)[O-])c2C1=O)Nc1nccs1` displayed a kinetic solubility of 49.3 µg/mL (≈ 142 µM). In the case of `Cc1ccc(OCCNC(=O)CCc2ccccc2)cc1C`, the solubility (kinetic) was determined as 12.9 µg/mL (≈ 43.4 µM). As for `CCN(CC)C(=O)c1ccc(COc2ccc(Cl)c(C)c2)o1`, the kinetic solubility was 10.7 µg/mL (≈ 33.3 µM). `CC1CC(C)(C)N2C(=O)C(=C(C#N)C#N)c3cccc1c32` (centres undefined) registered a solubility (kinetic) of 1.2 µg/mL (≈ 4.33 µM). For the compound `Cn1cccc1C(=O)OCC(=O)NC(=O)c1ccc(Cl)cc1`, the solubility (kinetic) was determined as 5.4 µg/mL (≈ 16.8 µM). As for `O=C1CCC(=O)N1CC(=O)N(c1ccccc1)c1ccccc1`, the figure is 40.4 µg/mL (≈ 131 µM); as for `Cc1ccc(NC2CC(C)NC(=S)N2)cc1` (centres undefined), 33.1 µg/mL (≈ 141 µM). For `N=c1oc2ccc3ccccc3c2cc1C(N)=S`, the kinetic solubility amounted to 7.2 µg/mL (≈ 28.3 µM). On to `N#C/C(=C\c1ccccc1)C(=O)NC1CC1`, for which the kinetic solubility is > 31.8 µg/mL. The compound `O=C(COc1ccc(F)cc1F)Nc1cccnc1` displayed a kinetic solubility of 36.2 µg/mL (≈ 137 µM). On to `O=C(NC(c1ccccc1)c1ccccc1)N1CCOCC1`, for which the solubility (kinetic) is > 44.5 µg/mL. Consider `CCC(C)n1c(O)c(C=NCC2CCCO2)c(=O)[nH]c1=S` (centres undefined), for which the solubility (kinetic) worked out at 38.3 µg/mL (≈ 123 µM). As for `CNC(=O)Nc1ccc(C(O)(C(=O)OC)C(F)(F)F)cc1` (centres undefined), the figure is > 45.9 µg/mL; as for `CCCCn1c(SCC(N)=O)nc2sc3c(c2c1=O)CCC3`, 1.9 µg/mL (≈ 5.63 µM). As for `CC(=O)c1csc(COc2cc(Cl)cc(Cl)c2)n1`, the kinetic solubility is < 0.6 µg/mL.

Regarding `Cn1cnc(Sc2ncnc3nc[nH]c23)c1[N+](=O)[O-]`, the kinetic solubility came out at 29.7 µg/mL (≈ 107 µM). For the compound `Cl.O=C(NCCCN1CCOCC1)C(=O)c1c[nH]c2ccccc12`, the solubility (kinetic) is > 52.8 µg/mL. `O=C(CCCc1nc(-c2ccccc2)no1)NC1CCCCC1` yielded a solubility (kinetic) of 13.7 µg/mL (≈ 43.7 µM).

The compound `COc1ccc(C(=O)OCC(=O)NC(=O)NC2CCCC2)c(O)c1` registered a solubility (kinetic) of 4.1 µg/mL (≈ 12.2 µM).

`Cc1ccc(CNCCc2ccc(F)cc2)s1`: the kinetic solubility turned out to be 26.7 µg/mL (≈ 107 µM). With `O=C(CC1SC(N2CCOCC2)=NC1=O)Nc1ccccc1F` (centres undefined), the solubility (kinetic) is > 50.6 µg/mL. In the case of `CC(C)(C)C(=O)Nc1ccc(S(=O)(=O)N2CCCC2)cc1`, the solubility (kinetic) was > 46.6 µg/mL. As for `CCc1ccccc1NC(=O)c1cc(-c2ccc(OC)cc2)on1`, the kinetic solubility was < 0.3 µg/mL. As to `CCOc1ccccc1CNC(c1ccccc1)c1ccccc1.Cl`, the kinetic solubility came out at 1.4 µg/mL. Take `S=C(NCc1ccncc1)Nc1ccc(Br)cc1`: the solubility (kinetic) is > 48.3 µg/mL. `COc1ccc(-n2c(C)c(C)c3c(NCCN(C)C)ncnc32)cc1`: the solubility (kinetic) is > 50.9 µg/mL.

Take `COc1ccc(NC2CCCN(C(=O)c3ccncc3)C2)cc1` (centres undefined): the kinetic solubility was > 46.7 µg/mL.

In turn, `CC(CCN1CCN(c2ccccn2)CC1)c1ccccc1` (centres undefined) came in with a solubility (kinetic) of 31 µg/mL (≈ 105 µM). In the case of `COc1ccccc1Nc1nc(Cl)nc(NC(C)(C)C)n1`, the kinetic solubility stood at 6.5 µg/mL (≈ 21.1 µM). As for `CCOc1ccc2[nH]c3c(NCCN(CC)CC)ncnc3c2c1`, the figure is 43.2 µg/mL (≈ 132 µM).

`O=C(/C=C/c1ccco1)NCCc1ccc(F)cc1`: the solubility (kinetic) amounted to 10.3 µg/mL (≈ 39.7 µM). To `CCOc1ccc(S(=O)(=O)NCc2ccc3c(c2)OCO3)cc1` belongs 10.9 µg/mL (≈ 32.5 µM).

`CN(CC(=O)Nc1cccc(S(=O)(=O)N2CCCC2)c1)Cc1ccccc1` gave a kinetic solubility of 17.8 µg/mL (≈ 45.9 µM). In the case of `COc1ccc(NC(=O)c2cc(S(=O)(=O)N3CCOCC3)ccc2C)cc1S(=O)(=O)N1CCOCC1`, the kinetic solubility was > 80.9 µg/mL. Take `CCOc1cccc2sc(Cl)nc12`: the solubility (kinetic) is 3.9 µg/mL (≈ 18.3 µM). Take `CCc1cccc(NC(=O)c2ccc3c(=O)n4c(nc3c2)CCCCC4)c1`: the solubility (kinetic) worked out at 9.2 µg/mL (≈ 25.5 µM).

For the compound `CCCN1C2CCCC1CC(NC(=S)Nc1ccc(OC)cc1)C2` (centres undefined), the kinetic solubility was > 52.1 µg/mL. For the compound `O=C(CSc1nccc(-c2cccs2)n1)Nc1cccc(Cl)c1`, the kinetic solubility stood at 2.2 µg/mL (≈ 6.08 µM).

As for `CN(C)c1nc(Nc2ccc(Cl)c(Cl)c2)nc(N(C)C)n1`, the kinetic solubility was < 0.1 µg/mL.

`C/C(=N\O)c1oc2ccc3c(C)cc(=O)oc3c2c1C`: the kinetic solubility was < 0.6 µg/mL. Consider `CN(CC(=O)Nc1cccc(F)c1)CC(=O)N(C)c1c(N)n(Cc2ccccc2)c(=O)[nH]c1=O`, for which the solubility (kinetic) is > 70.3 µg/mL. As for `Cc1cccc(C)c1N1CCN(C(=O)Cn2cncn2)CC1`, the solubility (kinetic) is > 44.9 µg/mL. As for `O=C(NC1CCN(Cc2ccccc2)CC1)c1ccc(Cl)cc1Cl`, the figure is > 54.5 µg/mL; as for `S=c1nccc(-c2ccc(Cl)cc2)[nH]1`, 26.7 µg/mL (≈ 120 µM). `CCC1CCc2sc(C(=O)NCc3ccccn3)cc2C1` (centres undefined) yielded a kinetic solubility of 36.8 µg/mL (≈ 122 µM). Turning to `CCOP(=O)(c1ccc(N(C)C)cc1)C(O)c1ccncc1` (centres undefined), the solubility (kinetic) was > 48 µg/mL. As for `COc1ccc(NC(=O)N2CCCc3cc(C)ccc32)c(OC)c1`, the figure is 27.8 µg/mL (≈ 85.2 µM). Take `C=C(C)n1c(=O)n(Cc2ccccc2C)c2ccccc21`: the solubility (kinetic) was 16 µg/mL (≈ 57.5 µM). The compound `CN(CCO)CCOCCOc1cccc2ccccc12` yielded a solubility (kinetic) of 34.6 µg/mL (≈ 120 µM). Take `Nc1cccc(/C=C/C(=O)O)c1`: the solubility (kinetic) is > 24.5 µg/mL. To `O=C(OCC(=O)N1CCC(Cc2ccccc2)CC1)c1cc(Br)ccc1O` belongs 6 µg/mL (≈ 13.9 µM).

`COC(=O)CC(c1ccc(C(C)C)cc1)n1cccc1` (centres undefined) registered a solubility (kinetic) of 2.5 µg/mL (≈ 9.21 µM).

In the case of `COc1ccc(OC)c(CCNC(=O)CCc2cn(C)c3ccccc23)c1`, the solubility (kinetic) amounted to 30.6 µg/mL (≈ 83.5 µM). With `Cc1nc(N2CCOCC2)[nH]c(=O)c1C`, the solubility (kinetic) is > 31.4 µg/mL. `COc1ccc(Nc2ccc(N3C(=O)CCC3=O)cc2[N+](=O)[O-])cn1` gave a kinetic solubility of 3.1 µg/mL (≈ 9.06 µM). As to `O=C(Nc1ccc(Cl)cc1)C1C2CCCCC21` (centres undefined), the kinetic solubility is < 0.5 µg/mL. As for `O=C(NC1(C(F)(F)F)N=C2SCCN2C1=O)c1ccccc1F` (centres undefined), the figure is 50.5 µg/mL (≈ 145 µM); as for `C/C(CC(=O)Nc1cc(C)ccn1)=N\NC(=O)c1ccccc1C`, > 48.7 µg/mL; as for `CC(=O)c1ccc(N2C(=O)CC(N3CCN(S(=O)(=O)c4ccc(C)c(C)c4)CC3)C2=O)cc1` (centres undefined), 15 µg/mL (≈ 31.9 µM). Turning to `Cc1cc(C(=O)CN2C(=O)NC(C)(c3cc(F)ccc3F)C2=O)c(C)n1C1CC1` (centres undefined), the solubility (kinetic) is 48.9 µg/mL (≈ 122 µM). For `CCOc1ccccc1NC(=O)Nc1cccc(S(N)(=O)=O)c1`, the kinetic solubility was > 50.3 µg/mL.

As to `CC1(NS(=O)(=O)c2ccc(Cl)s2)CCS(=O)(=O)C1` (centres undefined), the kinetic solubility was > 49.5 µg/mL.

The compound `COC(=O)c1c(C)oc(C)c1S(=O)(=O)NCc1cccs1` displayed a solubility (kinetic) of 43.4 µg/mL (≈ 132 µM). As to `Cc1ccc(C(=O)N2CCN(Cc3ccccc3)CC2)o1`, the solubility (kinetic) was > 42.7 µg/mL. To `C=CCNC(=O)COC(=O)c1nc2nccc(C)n2n1` belongs > 41.3 µg/mL; to `O=C(Nc1nc2ccccc2[nH]1)c1ccccc1O`, 0.2 µg/mL (≈ 0.79 µM); to `COc1ccc(C2=NCC(=S)Nc3ccc(Cl)cc32)cc1OC`, < 0.4 µg/mL. For `CNCc1ccccc1OCc1ccccc1F.Cl`, the solubility (kinetic) is > 42.3 µg/mL.

`c1ccc(-c2csc(NC3CCCCC3)n2)cc1` showed a solubility (kinetic) of 4.1 µg/mL (≈ 15.9 µM).

On to `O=c1cc(COc2ncnc3ccccc23)nc2sccn12`, for which the kinetic solubility is > 46.5 µg/mL. `Cc1cn(C2CCC(CO)O2)c(=O)[nH]c1=O` (centres undefined): the kinetic solubility was > 33.9 µg/mL. `Cc1cc(C)c(NC(=O)Nc2ccccc2)c(C)n1` came in with a kinetic solubility of 34.3 µg/mL (≈ 134 µM).

With `Cc1cc(C)cc(NC(=O)CCN2C(=O)c3ccccc3C2=O)c1`, the kinetic solubility is 2.5 µg/mL (≈ 7.76 µM). As for `O=C1NS(=O)c2cc([N+](=O)[O-])cc([N+](=O)[O-])c21` (centres undefined), the kinetic solubility was > 38.6 µg/mL.

`Cc1ccc(SCC(=O)N=C2NC(=O)CS2)cc1`: the solubility (kinetic) was found to be 35.9 µg/mL (≈ 128 µM). As for `CC(C)(C)SCCNC(=O)CN1C(=O)c2cccc3cccc1c23`, the kinetic solubility is 2.8 µg/mL (≈ 8.18 µM). As for `COc1ccc(C(=O)OCC(=O)c2ccc[nH]2)c(OC)c1`, the figure is > 43.4 µg/mL; as for `CNC(=O)c1[nH]cnc1C(=O)Nc1ccc(F)cc1`, 1.7 µg/mL (≈ 6.48 µM); as for `CCCN1CCN(C(=O)c2oc3c(Cl)cccc3c2C)CC1`, 35.7 µg/mL (≈ 111 µM).

In the case of `CC(=O)c1cccc(NC(=O)/C=C/c2ccc(S(=O)(=O)N3CCOCC3)cc2)c1`, the kinetic solubility stood at 5.1 µg/mL (≈ 12.3 µM). As to `CCC(C(=O)Nc1ccsc1C(=O)OC)c1ccccc1` (centres undefined), the solubility (kinetic) came out at 5.8 µg/mL (≈ 19.1 µM).

In turn, `CCNC(=S)N1CCN(S(=O)(=O)/C=C/c2ccccc2)CC1` had a kinetic solubility of 4.2 µg/mL (≈ 12.4 µM). `O=C(Nc1ccc(F)cc1)NC1CCCCCCC1` showed a solubility (kinetic) of 1.6 µg/mL (≈ 6.05 µM). Take `O=C(CSc1ncnc2ccccc12)c1ccco1`: the solubility (kinetic) was > 40.5 µg/mL. Compound `COc1ccccc1NC(=O)COc1ccc2ccccc2c1` came in with a kinetic solubility of 2.5 µg/mL (≈ 8.13 µM). As for `O=C(O)COc1ccccc1/C=N/NC(=O)c1ccc(F)cc1`, the figure is > 47.4 µg/mL; as for `CCC(=O)Nc1ccc2c(c1)nc1n2CCN(C2CCCCC2)C1`, > 49 µg/mL. To `Nc1nonc1C(=O)NCCNC(=O)c1ccc(Cl)cc1` belongs > 46.5 µg/mL. For the compound `COc1cc(OC)c(OC)cc1CNCc1ccco1`, the kinetic solubility was 38.7 µg/mL (≈ 140 µM). As for `CCCCSc1nc(O)cc(=O)n1CC`, the figure is 33.4 µg/mL (≈ 146 µM); as for `N#Cc1ccc(S(=O)(=O)N2CCN(c3ncccn3)CC2)cc1`, 1.9 µg/mL (≈ 5.77 µM); as for `O=C(/C=C/c1ccc(F)cc1)N1CCCc2ccccc21`, 18.5 µg/mL (≈ 65.8 µM).

As for `Cl.c1csc(CN2CCNCC2)c1`, the solubility (kinetic) is > 38.3 µg/mL. As for `O=C(c1cccc([N+](=O)[O-])c1)N1CCCC(C(=O)N2CCCCCC2)C1` (centres undefined), the kinetic solubility is > 53.9 µg/mL. As for `CCCCCC1C/C(=N\O)C=C(C)C1C(=O)OC` (centres undefined), the solubility (kinetic) was > 38 µg/mL.
